Measurements as given in paper PMC9811466, “Structural Features Affecting the Interactions and Transportability of LAT1-Targeted Phenylalanine Drug Conjugates” (Molecular Pharmaceutics, 2022).
Several values for one entry are separate records, joined by “and”; a condition that tells them apart may be missing. Identical values can stand only once. Entries after “also recorded” stand apart in the source; their conditions may differ. Like-named read-outs stand apart in the source and are kept apart here.

What was measured:
[1] = target: T1, LAT1 in MCF-7 human breast cancer cells (Homo sapiens, UniProt Q01650); experiment: cis-inhibition of [14C]-L-leucine uptake in MCF-7 cells; format: cell-based; conditions: for inhibition at 50 µM: MCF7, MCF-7 cells
T1 construct: wild-type MCF-7 human breast cancer cell line; endogenous in cells; host or cells: MCF-7 human breast cancer cells (wild type)
Experimental: Cells were cultured in DMEM (Gibco, ThermoFisher Scientific, Waltham, MA, USA) supplemented with L-glutamine (2 mM; ThermoFisher Scientific, Waltham, MA, USA), heat-inactivated fetal bovine serum (10%; Gibco, ThermoFisher Scientific, Waltham, MA, USA), penicillin (50 U/mL)-streptomycin (50 μg/mL) solution (ThermoFisher Scientific, Waltham, MA, USA), and hygromycin B solution (100 μg/mL) for transfected cells. HEK-hLAT1 and HEK-MOCK cells (passages 7–20) were seeded at a density of 5 × 10^5 cells/wells onto 24-well plates. The cells were used in the characterization, competition, and uptake studies 2 days after seeding. MCF-7 cells were seeded at a density of 1 × 10^5 and were used in the competition studies 1 day after seeding. The culture medium was removed, and the cells were washed with prewarmed Hanks’ balanced salt solution (HBSS; 125 mM NaCl, 4.8 mM KCl, 1.2 mM MgSO4, 1.2 mM KH2PO4, 1.3 mM CaCl2, 5.6 mM D-glucose, and 25 mM HEPES, pH 7.4). The cells were then incubated with HBSS at 37 °C for 10 min before the experiments.
(§1) In the following experiments, the MCF-7, HEK-hLAT1, and HEK-MOCK cells were cultured, seeded, and preincubated as described above. The HBSS was removed, and the ability of the compounds to inhibit the uptake of a known LAT1 substrate, [^14C]-L-leucine (PerkinElmer, Waltham, MA, USA), was studied by incubating the cells at RT for 10 min in uptake buffer pH 7.4 (250 μL) containing 0.76 μM (0.1 mCi/mL) of [^14C]-L-leucine and 0.025–1800 μM of the studied compound (or HBSS as blank). After incubation, the reaction was stopped with ice-cold HBSS, and the cells were washed two times with ice-cold HBSS. The cells were then lysed with 250 μL of 0.1 M sodium hydroxide, the lysate was mixed with 1.0 mL of Emulsifier safe cocktail (PerkinElmer, Waltham, MA, USA), and the radioactivity was measured with a liquid scintillation counter (MicroBeta^2 counter, PerkinElmer, Waltham, MA, USA). The inhibition of [^14C]-L-leucine in the presence of the studied compounds as compared to the control (HBSS) was calculated as percentages (%).

hLAT1/4F2hc [2] = target: T2, hLAT1/4F2hc (Homo sapiens, UniProt Q01650); experiment: cis-inhibition of [14C]-L-leucine uptake in HEK-hLAT1 cells; format: cell-based; conditions: for [14C]-L-Leucine uptake inhibition % (50μM) / inhibition at 50 µM: 50 μM compound; for inhibition at 50 µM: read-out: [14C]-L-Leucine uptake inhibition % (50μM)
T2 construct: Invitrogen (host cells)
Experimental: as §1
Using the stably hLAT1/4F2hc expressing cell line, the compounds’ inhibitory efficiencies and uptake kinetics were determined via the cis-inhibition assay and uptake studies, respectively. (Table 1) Cis-inhibition is based on the competition between the ligand and LAT1 substrate [^14C]-L-leucine that results in inhibition of substrate uptake. The competitive uptake with L-leucine is reported as the IC50 value of L-leucine uptake and extent as inhibition percentage (%) at a given concentration.

HEK-MOCK cells = experiment: Concentration-dependent cellular uptake into HEK-MOCK cells; format: cell-based, human; conditions: for Km: compounds 1-12; for Vmax: compounds 1-12, 2-400 μM, 10 min
Experimental: (§2) The concentrations for the compounds were in the range of 2–400 μM. Otherwise, the experiment was carried out as described above and analyzed by liquid chromatography coupled with an electrospray ionization (ESI) triple quadrupole mass spectrometer (LC–MS–MS). […]
(§3) The concentration-dependent uptake studies were performed by adding 2–400 μM of the tested compound in 250 μL of prewarmed HBSS buffer on the cell layer. […] After incubation, the cells were washed and lysed as described above. The lysate was collected from wells into an Eppendorf tube and centrifuged at 4 °C, the supernatant was collected, and the intracellular concentrations of studied compounds were analyzed by liquid chromatography coupled with an ESI triple quadrupole mass spectrometer (LC–MS–MS). The results were calculated from the standard curve that was prepared by spiking known amounts of each compound to the cell lysate and normalized to protein concentration. The protein concentrations on each plate were determined as a mean of three samples by Bio-Rad Protein Assay, based on the Bradford dye-binding method, using BSA as a standard protein and measuring the absorbance (595 nm) by a multiplate reader (EnVision, PerkinElmer, Inc., Waltham, MA, USA). All statistical analyses (Michaelis–Menten kinetic parameters) were performed using GraphPad Prism v. 5.03 software (GraphPad Software, San Diego, CA., USA). […]
(§4) After protein precipitation, the samples were centrifuged for 10 min with 10,000 g at 4 °C. The supernatant was then collected and transferred to vials for LC–MS/MS analysis. For BCH and gabapentin, cells were also lysed with 0.1 M NaOH, an aliquot was taken from the lysates, and perchloric acid (PCA) was added to precipitate the proteins. The samples were then centrifuged, and the supernatant was diluted 1:10 with H20 with 0.1% formic acid including the IS and transferred to vials for analysis.
(§5) The samples were analyzed with LC–MS/MS coupled with an Agilent 1200 series Rapid Resolution LC System (Agilent Technologies, Waldbronn, Germany) and an Agilent 6410 Triple Quadrupole with electrospray ionization (ESI) (Agilent Technologies, Palo Alto, CA, USA). […] The aqueous mobile phase was 0.1% formic acid in water (A), while the organic mobile phase was 0.1% formic acid in acetonitrile (B). […] For compound 4: 0–4 min 10% → 90% B, 4–6 min 90% B, 6–6.1 min 90% → 10%, 6.1–9 min 10%. For compound 5: 0–1 min 20% → 95% B, 1–4 min 95%, 4–4.1 min 95% → 20%, 4.1–7 min 20%. For compounds 6 and 9: 0–2 min 10% → 95%, 2–6 min 95%, 6–6.1 min 95% → 10%, 6.1–9 min 10%. For compound 8: 0–1 min 20% → 80%, 1–5.2 min 80%, 5.2–5.3 min 80% → 20%, 5.3–9 min 20%.

hLAT1/4F2hc [3] = target: T2, hLAT1/4F2hc; experiment: Concentration-dependent cellular uptake into HEK-hLAT1 cells (LC-MS/MS, Michaelis-Menten); format: cell-based; conditions: difference in uptake HEK-hLAT1 vs HEK-MOCK, with docking poses; 2-100 μM curves
[4] = target: T1, LAT1 in MCF-7 human breast cancer cells; conditions: MCF-7 cells; read-out: IC50 of [14C]-L-leucine uptake; cited from earlier work
MCF-7 cells = conditions: cited from earlier work
hLAT1/4F2hc [5] = target: T2, hLAT1/4F2hc; experiment: Concentration-dependent cellular uptake into HEK-hLAT1 cells (LC-MS/MS, Michaelis-Menten); format: cell-based; conditions: HEK-hLAT1 cells, compounds 1-12; for Vmax: 2-400 μM, 10 min
Experimental: as §2, §3, §4, §5

[6] = Conversion of ester conjugate in 0.1 M NaOH (sample lysis); format: physicochemical
Experimental: For compound 9, the LLOQ was 0.05 nM with good linearity (R^2 > 0.983).[34] For the compounds 1, 7, and 12, the LLOQ was 12.5 nM, with a linear range of 12.5–2500 nM, and for 11, the LLOQ was 6.3 nM, over the range of 6.3–6250 nM.[28] For 10, the calibration curve was linear with a LLOQ of 1 ng/mL (accuracy ±15%), respectively.[26] For compounds 2–5, the LLOQ was 5.0 nM.[29] Methods were also selective, accurate (RSD < 15%), and precise (RSD < 15%) over the range of 5.0–1000 nM for 5 and for compounds 2–4 5.0–2000 nM. For compound 6, the LLOQ was 10 pmol/g.[33] Ketoprofen was linear with a range of 0.25–25 ng/mL, while compound 8 was completely converted to ketoprofen in 0.1 M NaOH within 30 min.

[7] = HEK-hLAT1 cells, compounds 1-12, 50 µM
[8] = HEK-hLAT1 cells, compounds 1-12, read-out: IC50 of [14C]-L-leucine uptake
[9] = HEK-hLAT1 cells, compounds 1-12

T1 sequence (Q01650 whole entry): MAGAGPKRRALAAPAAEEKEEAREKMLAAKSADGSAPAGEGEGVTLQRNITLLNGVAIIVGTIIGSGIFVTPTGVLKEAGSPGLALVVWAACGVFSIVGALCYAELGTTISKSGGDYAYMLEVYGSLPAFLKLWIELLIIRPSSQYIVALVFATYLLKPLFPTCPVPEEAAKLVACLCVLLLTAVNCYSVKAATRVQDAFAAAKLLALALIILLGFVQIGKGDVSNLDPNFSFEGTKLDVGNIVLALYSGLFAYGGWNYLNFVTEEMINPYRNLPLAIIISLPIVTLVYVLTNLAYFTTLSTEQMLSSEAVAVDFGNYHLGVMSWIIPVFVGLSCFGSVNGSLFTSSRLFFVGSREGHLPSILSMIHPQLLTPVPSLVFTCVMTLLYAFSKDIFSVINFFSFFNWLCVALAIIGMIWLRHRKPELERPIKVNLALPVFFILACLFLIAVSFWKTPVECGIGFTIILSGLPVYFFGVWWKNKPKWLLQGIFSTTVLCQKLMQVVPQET
T1 sequence (P08195 102-630 partner): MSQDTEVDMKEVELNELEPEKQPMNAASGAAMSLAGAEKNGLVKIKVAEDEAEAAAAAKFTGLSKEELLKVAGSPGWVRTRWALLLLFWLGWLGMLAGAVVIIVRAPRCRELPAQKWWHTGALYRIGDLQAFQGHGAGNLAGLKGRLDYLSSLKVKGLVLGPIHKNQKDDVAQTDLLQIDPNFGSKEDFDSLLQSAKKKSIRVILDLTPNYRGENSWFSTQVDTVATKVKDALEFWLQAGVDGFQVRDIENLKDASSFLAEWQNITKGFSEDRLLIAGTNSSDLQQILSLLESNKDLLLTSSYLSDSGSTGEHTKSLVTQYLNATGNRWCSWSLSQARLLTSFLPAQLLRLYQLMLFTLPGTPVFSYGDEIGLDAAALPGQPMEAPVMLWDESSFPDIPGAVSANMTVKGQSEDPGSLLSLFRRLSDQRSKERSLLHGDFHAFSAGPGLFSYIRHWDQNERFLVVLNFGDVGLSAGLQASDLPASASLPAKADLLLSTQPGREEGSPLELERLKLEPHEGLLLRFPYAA
T2 sequence (Q01650 whole entry): as the sequence (Q01650 whole entry) above
T2 sequence (P08195 102-630 partner): as the sequence (P08195 102-630 partner) above

Compound	inhibition at 50 µM ([1]; 50 μM compound) [%]	[14C]-L-Leucine uptake inhibition % (50μM) (hLAT1/4F2hc [2]; [7])	IC50 (hLAT1/4F2hc [2]; [8]) [µM]	Km (HEK-MOCK cells) [µM]	Vmax (HEK-MOCK cells)	interaction class with LAT1 (interaction and transportability) (hLAT1/4F2hc [3])	IC50 [4] [µM]	IC50 ([1]; MCF-7 cells) [µM]	[14C]-L-Leucine uptake inhibition % (50μM) ([1]; MCF-7 cells, 50 μM compound, 50 µM) [%]	Km (MCF-7 cells; MCF-7 cell line) [µM]	Vmax (MCF-7 cells; MCF-7 cell line) [pmol/min/mg]	inhibition at 50 µM (hLAT1/4F2hc [2]; [9]) [%]	Vmax (MCF-7 cells; MCF-7 cells, previous studies) [pmol/min/mg]	IC50 (hLAT1/4F2hc [2]) [µM]	[14C]-L-Leucine uptake inhibition % (50μM) (hLAT1/4F2hc [2]; [9])	Km (hLAT1/4F2hc [5]) [µM]	Vmax (hLAT1/4F2hc [5])	time to complete conversion to ketoprofen [6] [min]	Km (hLAT1/4F2hc [5]; read-out: Km) [µM]
COc1cc(/C=C/C(=O)Nc2cccc(C[C@H](N)C(=O)O)c2)ccc1O [Compound 9]	79.7 ± 7.87	not able to inhibit; also recorded: no inhibition	> 100	94 ± 45	149±41 pmol/min/mg of protein	low	1.1 ± 0.08												
CCCN(CCC)S(=O)(=O)c1ccc(C(=O)Nc2cccc(C[C@H](N)C(=O)O)c2)cc1 [Compound 10]	40	11±9.9%	> 100		248±616 pmol/min/mg of protein	low		137 ± 1.6	45±1.7	15.2	111	10							
N[C@@H](Cc1ccc(OC(=O)NCCc2ccc(O)c(O)c2)cc1)C(=O)O [Compound 2]				8.7 ± 12	19 pmol/min/mg of protein and 19±12 pmol/min/mg of protein	highest interactions							< 3	> 100	no inhibition	103 ± 41	1521 pmol/min/mg of protein and 1521±364 pmol/min/mg of protein		
CC(C(=O)Oc1cccc(C[C@H](N)C(=O)O)c1)c1cccc(C(=O)c2ccccc2)c1 (stereo partly drawn) [Compound 8]	83 ± 0.9		> 100					0.4 ± 0.08				24 ± 2.3						≤ 30	
CC(C(=O)Nc1cccc(C[C@H](N)C(=O)O)c1)c1cccc(C(=O)c2ccccc2)c1 (stereo partly drawn) [Compound 5]	93 ± 0.5		11	109 ± 69	63±24 pmol/min/mg of protein	medium interactions	0.5 ± 0.05					48 ± 1.8					63±7.5 pmol/min/mg of protein		19 ± 7.3
